The test system of assay [1] is LPA-induced neuropathic pain in C57/Bl6 mice. Kind of assay: Lysophosphatidic acid (LPA)-induced neuropathy, mechanical hyperalgesia (digital Randall-Selitto). The settings on record: 1 hour after dosing. It is filed as in vivo, mouse. Here is the method: The therapeutic effects of the compounds of the present invention were assessed in the lysophosphatidic acid (LPA)-induced neuropathy in mice. This model is commonly used to evaluate the potential analgesic activity of compounds designed to treat neuropathic pain in humans (Inoue et al. (2004) Nat Med 10: 712-718; Inoue et al. (2008). Mol Pain 4(6) doi:10.1186/1744-8069-4-6). In this example, a representative compound of the invention, 4-chloro-N-(cycloheptylmethyl)-1-(2-hydroxyethyl)-1H-indole-3-carboxamide (Example 54), was tested.
Neuropathic pain was induced in male, C57/Bl6 mice (Harlan) by an intrathecal injection of 1 nmol LPA (prepared in saline; ENZO) in a 5 μL volume into the spinal cord. Pre-LPA injection, post-LPA injection and post-treatment values for mechanical hyperalgesia were evaluated using a digital Randall-Selitto device (dRS; IITC Life Sciences). Paw compression threshold was measured once at each time point for the left and right paws. […] The readings from the left and right paws were averaged at each time point. […]
Vehicle (0.5% carboxymethylcellulose (CMC)) or between 125-500 mg/kg of a compound of the present invention (dissolved in 0.5% CMC) were administered via oral gavage two days after LPA injection. […] If a significant main effect was detected, Dunnetts' post hoc test was used to compare treatment to vehicle treated animals. […]

The next assay relates to EAE in SJL mice. Kind of assay: Relapsing-remitting experimental autoimmune encephalomyelitis (EAE), PLP139-151/CFA model of multiple sclerosis. The format is in vivo, mouse. The note with it: SJL female mice. As to the method:
The therapeutic effects of the compounds of the present invention were assessed in a mouse model of relapsing-remitting multiple sclerosis MS. The relapsing-remitting experimental autoimmune encephalomyelitis (EAE) which develops in SJL mice after immunization with the Proteolipid Protein PLP139-151 and Complete Freund's Adjuvant (CFA) is the mouse model which most closely resembles human remitting/relapsing MS (see Webb et al (2004) J Neuroimmunol 153:108-121). In this example, a representative compound of the invention, 4-chloro-N-(cycloheptylmethyl)-1-(2-hydroxyethyl)-1H-indole-3-carboxamide (Example 54), was tested.
EAE was induced in SJL female mice (Jackson Labs), using a PLP139-151/CFA Emulsion (Hooke Laboratories, Lawrence Mass.) according to the manufacturer's recommended protocol. Mice were injected subcutaneously at four sites (0.05 mL at each site) in the back with the emulsion. Two sites of injection were in the area of the upper back, approximately 1 cm caudal of the neck line. The other two sites were in the area of the lower back, approximately 2 cm cranial of the base of the tail. Individual animals were then examined daily for clinical signs of neurological deficits scored on a 0 to 5 scale as follows: 0, no abnormality; 0.5, stiff tail; 1, limp tail; 1.5, limp tail with inability to right; 2, paralysis of one limb; 2.5, paralysis of one limb and weakness of one other limb; 3, complete paralysis of both hind limbs; 4, moribund; 5, death. Daily scoring for signs of EAE started on Day 7 after immunization with the first symptoms observed between Days 11 and 15 after immunization. Treatment for each animal began on the second day that the animal developed EAE symptoms. […] The effect of treatment on development of EAE relapses was evaluated by comparing incidence and severity of relapses, and the end scores between the compound-treated groups and the vehicle group. Incidence of relapse were compared using two-tailed Fisher's exact test and the end scores between vehicle and treatment groups were calculated using Wilcoxon's non-parametric test. […]

As to `O=C(NCC1CCCCCC1)c1cn(CCO)c2cccc(Cl)c12` [Example 54, 4-chloro-N-(cycloheptylmethyl)-1-(2-hydroxyethyl)-1H-indole-3-carboxamide], the “mean paw compression thresholds compared to pre-treatment baseline” value in assay [1] (125-500 mg/kg oral gavage two days after LPA injection, p<0.05) was “significantly increased mean paw compression thresholds”. For the same compound, in the assay with EAE in SJL mice (125 to 500 mg/kg twice daily oral gavage from second day of EAE symptoms, vehicle 50.0%, p=0.0038), the “treated animals that developed relapses” value came out at 6%. Moreover, in the assay on EAE in SJL mice (125 to 500 mg/kg twice daily oral gavage, 0 to 5 scale, vehicle 1.34, p=0.0021), the “average EAE score on Day 40 (end of the study)” value came out at 0.50. In the assay on EAE in SJL mice (125 to 500 mg/kg twice daily oral gavage, vehicle mean day of relapse 22, delay p=0.0039), the “day of relapse (the one mouse of the group that relapsed)” value worked out at 40 days.

As for `NCC1(CC(=O)O)CCCCC1` [gabapentin, reference compound], the “mechanical hyperalgesia (paw compression thresholds) compared to pre-treatment baseline” value in assay [1] (100 mg/kg intraperitoneal two days after LPA injection) is listed as “slight decrease in mechanical hyperalgesia”.
